From US8063225B2, “Tricyclic compound derivatives useful in the treatment of neoplastic diseases, inflammatory disorders and immunomodulatory disorders” (Chembridge Corporation, priority 2006, dated 2011) come the findings set out here.

Assay [1] concerns the target T1, Jak2 (Homo sapiens, UniProt O60674).
T1 construct: 6×His- or GST-tagged kinase domain fragments of the corresponding RTKs expressed in baculovirus system; host or cells: baculovirus system
Kind of assay: Tyrosine kinase assay (Kinase-Glo or AlphaScreen), Jak2. The settings on record: biochemical tyrosine kinase assay. The essentials: (§1)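 Luminescence of remaining ATP (Kinase-Glo) or anti-phosphotyrosine AlphaScreen proximity signal served as read-out. Reactions held purified tagged kinase domain, poly(Glu-Tyr) substrate and 10 μM ATP at pH 7.5. IC50 values came from non-linear regression fits.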
Background: Kinase-Glo reads ATP consumption through a luciferase reaction.

The test system of assay [2] is H929 (multiple myeloma). Kind of assay: Cell proliferation inhibition, Cell Titer-Glo, H929. The settings on record: Homo sapiens, NCI-H929; cell proliferation assay, H929 cells. The assay is classed as cell-based. The essentials:
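Cells seeded at 2500-5000 per well with serially diluted compound for typically 3 days. Viable cells measured by ATP luminescence (Cell Titer-Glo); IC50 from proliferation-inhibition curves.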
(In general: Cellular ATP, detected with luciferase, serves as a proxy for viable cell number.)

Assay [3] addresses T2, IGF1R tyrosine kinase (Homo sapiens, UniProt P08069).
T2 construct: 6×His- or GST-tagged kinase domain fragments of the corresponding RTKs expressed in baculovirus system; host or cells: baculovirus system
As to the kind of experiment: IGF1R tyrosine kinase assay (Kinase-Glo ATP depletion or PT66/PT100 AlphaScreen). The settings on record: biochemical tyrosine kinase assay. The essentials:
as §1

For assay [4], the system named is CHO (chinese hamster ovary). Kind of assay: Cell proliferation inhibition, Cell Titer-Glo, CHO. The following applies: Cricetulus griseus; cell proliferation assay, CHO cells. The assay is classed as cell-based. On the procedure: (§2) IGF1R and other tyrosine kinase inhibitors can inhibit the proliferation of certain cancer cell lines indicating their possible therapeutic utility for treating the corresponding cancer types. Cancer cell lines of interest and control normal lines, including CHO, HEK293, BA/F3, MM1, H929, COLO205, PC3, DU145, MCF7, Panc1, ACHN, Hep G2, H460, K562, TT, U87-G, CAOV-3, SK-MEL5, Karpas 299, are plated in white, clear-bottomed 384-well cell culture plates at 2500-5000 cells per well and supplied with dilutions of tested compounds After a desired period of time (typically 3 days), the number of viable cells is quantitated by using Cell Titer-Glo Luminescent Cell Viability Assay (Promega), a cell proliferation assay system based on detection of total amount of ATP present as a measure of cell metabolic activity. The plated cells are mixed with the Cell Titer-Glo developing reagent and counted in a luminescence multiwell plate reader according to the standard manufacturer's protocol to generate IC50 curves for cell proliferation inhibition.
(§3) IGF1R and other tyrosine kinase inhibitors can inhibit the proliferation of certain cancer cell lines indicating their possible therapeutic utility for treating the corresponding cancer types. Cancer cell lines of interest and control normal lines, including CHO, HEK293, BA/F3, COLO205, PC3, DU145, MCF7, Panc1, ACHN, Hep G2, H460, K562, TT, U87-MG, CAOV-3, SK-MEL5, Karpas 299 and human multiple myeloma cell lines H929, MM1s, MM1r, UTMC2, CPM2, KMS11, My5, KMS12PE, My7, JJN3, KMS18, U266, SKMM2, RPMI-8226 are plated in white, clear-bottomed 384-well cell culture plates at 2500-5000 cells per well and supplied with dilutions of tested compounds After a desired period of time (typically 3 days), the number of viable cells is quantitated by using Cell Titer-Glo Luminescent Cell Viability Assay (Promega), a cell proliferation assay system based on detection of total amount of ATP present as a measure of cell metabolic activity. The plated cells are mixed with the Cell Titer-Glo developing reagent and counted in a luminescence multiwell plate reader according to the standard manufacturer's protocol to generate IC50 curves for cell proliferation inhibition. Results are typically reported as percent of growth (% viability =(OD72h(compound)−ODday0))/(OD72h(no compound)−ODday0). Alternatively, viable cells are quantitated by using the conventional colorimetric MTT assay. The MTT assay is based on the cleavage of the yellow tetrazolium salt MTT to purple formazan crystal by metabolic active cells. The formazan is then solubilized, and the concentration determined by optical density at 570 nm. The cells plated and incubated with a compound as described above are supplemented with the solution of MTT and incubated for 2-3 hours. The growth medium is removed and dimethyl sulfoxide is added into each well to dissolve the formazan. The absorbance is measured on an ELISA plate reader with a test wavelength of 570 nm and a background subtraction wavelength of 630 nm to obtain sample signal (OD570-OD630). […] The results are reported in terms of IC50 value for a particular compound and a cell line in the standard 3-day proliferation assay using Cell Titer-Glo. […] The results are reported in terms of IC50 value for a particular compound and a cell line in the standard 3-day proliferation assay using MTT assay.

Assay [5] has as its target T3, InsR (Homo sapiens, UniProt P06213).
T3 construct: 6×His- or GST-tagged kinase domain fragments of the corresponding RTKs expressed in baculovirus system; host or cells: baculovirus system
Kind of assay: Tyrosine kinase assay (Kinase-Glo or AlphaScreen), InsR. The following applies: biochemical tyrosine kinase assay. The essentials:
as §1

The target of assay [6] is T4, Alk (Homo sapiens, UniProt Q9UM73).
T4 construct: 6×His- or GST-tagged kinase domain fragments of the corresponding RTKs expressed in baculovirus system; host or cells: baculovirus system
T4 sequence (Q9UM73 1116-1392 limits assumed, species assumed): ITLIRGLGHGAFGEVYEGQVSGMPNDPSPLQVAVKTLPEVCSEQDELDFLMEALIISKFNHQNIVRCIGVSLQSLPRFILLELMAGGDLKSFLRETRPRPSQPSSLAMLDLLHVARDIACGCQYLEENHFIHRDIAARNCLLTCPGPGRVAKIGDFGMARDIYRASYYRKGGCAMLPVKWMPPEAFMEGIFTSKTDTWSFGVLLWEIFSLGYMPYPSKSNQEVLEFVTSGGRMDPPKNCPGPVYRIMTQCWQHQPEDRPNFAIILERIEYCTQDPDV
As to the kind of experiment: Tyrosine kinase assay (Kinase-Glo or AlphaScreen), Alk. The settings on record: biochemical tyrosine kinase assay. The essentials:
as §1

In assay [7] the test system is HEK293 (human normal embryonic kidney). Kind of assay: Cell proliferation inhibition, Cell Titer-Glo, HEK293. In kind it is cell-based. The following applies: cell proliferation assay, HEK293 cells, read-out: HEK 293 IC50. On the procedure:
as §2, §3

The term IC50 denotes the concentration at which inhibition is half-maximal.

T3 sequence (P06213 1023-1298 limits assumed, species assumed): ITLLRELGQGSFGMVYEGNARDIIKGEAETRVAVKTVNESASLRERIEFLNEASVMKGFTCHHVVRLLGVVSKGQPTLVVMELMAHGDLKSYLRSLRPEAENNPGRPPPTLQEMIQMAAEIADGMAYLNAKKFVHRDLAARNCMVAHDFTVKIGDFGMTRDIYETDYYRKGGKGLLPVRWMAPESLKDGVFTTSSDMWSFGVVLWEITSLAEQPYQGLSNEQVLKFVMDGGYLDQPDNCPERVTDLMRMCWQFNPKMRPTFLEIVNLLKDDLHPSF
T2 sequence (P08069 999-1274 limits assumed): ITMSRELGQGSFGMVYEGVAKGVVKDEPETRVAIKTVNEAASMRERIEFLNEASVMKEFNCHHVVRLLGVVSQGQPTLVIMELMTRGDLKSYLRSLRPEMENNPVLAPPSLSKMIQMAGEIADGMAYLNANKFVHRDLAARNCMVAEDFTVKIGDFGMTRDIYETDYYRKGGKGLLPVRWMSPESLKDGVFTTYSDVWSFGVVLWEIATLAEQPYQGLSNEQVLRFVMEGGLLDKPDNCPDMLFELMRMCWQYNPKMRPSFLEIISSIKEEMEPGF
T1 sequence (O60674 849-1124 limits assumed, species assumed): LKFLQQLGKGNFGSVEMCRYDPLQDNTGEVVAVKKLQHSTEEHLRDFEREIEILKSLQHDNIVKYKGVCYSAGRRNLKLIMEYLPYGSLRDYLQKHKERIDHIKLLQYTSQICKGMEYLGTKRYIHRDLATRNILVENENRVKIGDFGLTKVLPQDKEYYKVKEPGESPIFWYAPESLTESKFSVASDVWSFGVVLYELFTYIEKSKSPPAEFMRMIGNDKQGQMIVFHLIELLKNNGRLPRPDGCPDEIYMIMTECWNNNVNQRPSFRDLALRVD

Turning to `CN1CCC(N2Cc3cc4nc(-c5c(N[C@@H](CO)Cc6ccccc6)cc[nH]c5=O)[nH]c4cc3C2=O)CC1` [compound 160], the IC50 is 0.5 to 5 µM in assay [1]; 5 to 15 µM in assay [2]; 0.5 to 5 µM in assay [3]; greater than 15 µM in assay [4]; less than 0.5 µM in assay [5]; 0.5 to 5 µM in assay [6].

`CN1CCC(N2Cc3cc4[nH]c(-c5c(NC[C@@H](O)COc6ccc7c(c6Cl)OCO7)cc[nH]c5=O)nc4cc3C2=O)CC1` [compound 163]: the IC50 in assay [7] was 5 to 15 µM; in assay [1], less than 0.5 µM; in assay [2] it was 5 to 15 µM; in assay [3] it was less than 0.5 µM; in assay [4], greater than 15 µM; in assay [5] it was less than 0.5 µM. Moreover, the IC50 in assay [6] lay within 0.5 to 5 µM.

For `CN1CCC(N2Cc3cc4nc(-c5c(NC[C@@H](O)COc6cc(F)cc(F)c6Cl)cc[nH]c5=O)[nH]c4cc3C2=O)CC1` [compound 152], the concentration for half-maximal inhibition (IC50) in assay [1] was less than 0.5 µM; in assay [2], 5 to 15 µM; in assay [3], less than 0.5 µM; in assay [4], greater than 15 µM; in assay [5], less than 0.5 µM; in assay [6] it was 0.5 to 5 µM.

As to `COc1ccc(OC[C@H](O)CNc2cc[nH]c(=O)c2-c2nc3cc4c(cc3[nH]2)CN(C2CCN(C)CC2)C4=O)c(Cl)c1` [compound 146], the IC50 in assay [7] was greater than 15 µM; in assay [1], less than 0.5 µM; in assay [2] it was 5 to 15 µM; in assay [3] it was less than 0.5 µM; in assay [4], greater than 15 µM; in assay [5], less than 0.5 µM. In addition, in assay [6], the IC50 lay in the range of 0.5 to 5 µM.

As to `CN1CCC(N2Cc3cc4[nH]c(-c5c(NC[C@@H](O)COc6c(F)cc(F)cc6Br)cc[nH]c5=O)nc4cc3C2=O)CC1` [compound 164], the IC50 was 5 to 15 µM in assay [7]; less than 0.5 µM in assay [1]; 5 to 15 µM in assay [2]; less than 0.5 µM in assay [3]; 5 to 15 µM in assay [4]; less than 0.5 µM in assay [5]. In assay [6], this compound gave a concentration for half-maximal inhibition (IC50) of 0.5 to 5 µM.

Take `CN1CCC(N2Cc3cc4nc(-c5c(NC[C@@H](O)COc6cc7c(cc6Cl)OCO7)cc[nH]c5=O)[nH]c4cc3C2=O)CC1` [compound 157]: the concentration for half-maximal inhibition (IC50) in assay [1] was less than 0.5 µM; in assay [2] it was greater than 15 µM; in assay [3], less than 0.5 µM; in assay [4], greater than 15 µM; in assay [5] it was less than 0.5 µM; in assay [6], 0.5 to 5 µM.

As to `CN1CCC(N2Cc3cc4nc(-c5c(NC[C@@H](O)COc6ccccc6C(F)(F)F)cc[nH]c5=O)[nH]c4cc3C2=O)CC1` [compound 149], the IC50 in assay [7] is 5 to 15 µM; in assay [1] it was less than 0.5 µM; in assay [2], 0.5 to 5 µM; in assay [3] it was less than 0.5 µM; in assay [4], greater than 15 µM; in assay [5] it was less than 0.5 µM. In assay [6], the IC50 is less than 0.5 µM.

Regarding `Cc1ccc(F)c(OC[C@H](O)CNc2cc[nH]c(=O)c2-c2nc3cc4c(cc3[nH]2)C(=O)N(C2CCN(C)CC2)C4)c1Cl` [compound 147], the IC50 in assay [7] is greater than 15 µM; in assay [1], less than 0.5 µM; in assay [2], 0.5 to 5 µM; in assay [3] it was less than 0.5 µM; in assay [4], greater than 15 µM; in assay [5] it was less than 0.5 µM. In assay [6], this compound gave a half-inhibitory concentration (IC50) of 5 to 15 µM.

As to `Cc1c(OC[C@H](O)CNc2cc[nH]c(=O)c2-c2nc3cc4c(cc3[nH]2)CN(C2CCN(C)CC2)C4=O)ccc2c1OCO2` [compound 169], the concentration for half-maximal inhibition (IC50) in assay [7] is greater than 15 µM; in assay [1], less than 0.5 µM; in assay [2] it was greater than 15 µM; in assay [3] it was less than 0.5 µM; in assay [4] it was greater than 15 µM; in assay [5], less than 0.5 µM. In assay [6], this compound gave a half-inhibitory concentration (IC50) of 0.5 to 5 µM.

Regarding `COc1cccc(OC[C@H](O)CNc2cc[nH]c(=O)c2-c2nc3cc4c(cc3[nH]2)C(=O)N(C2CCN(C)CC2)C4)c1C` [compound 159], the IC50 in assay [1] is less than 0.5 µM; in assay [2], 5 to 15 µM; in assay [3], less than 0.5 µM; in assay [4] it was greater than 15 µM; in assay [5], less than 0.5 µM; in assay [6], 5 to 15 µM.

Turning to `Cc1ccc(Cl)c(OC[C@H](O)CNc2cc[nH]c(=O)c2-c2nc3cc4c(cc3[nH]2)C(=O)N(C2CCN(C)CC2)C4)c1F` [compound 158], the IC50 in assay [1] was less than 0.5 µM; in assay [2], 5 to 15 µM; in assay [3], less than 0.5 µM; in assay [4], greater than 15 µM; in assay [5], less than 0.5 µM; in assay [6], 5 to 15 µM.

Take `CN1CCC(N2Cc3cc4nc(-c5c(NC[C@@H](O)COc6cc(F)ccc6Cl)cc[nH]c5=O)[nH]c4cc3C2=O)CC1` [compound 150]: the concentration for half-maximal inhibition (IC50) in assay [1] was less than 0.5 µM; in assay [2], 5 to 15 µM; in assay [3], less than 0.5 µM; in assay [4] it was greater than 15 µM; in assay [5], less than 0.5 µM; in assay [6], 0.5 to 5 µM.

In the case of `CN1CCC(N2Cc3cc4nc(-c5c(NC[C@@H](O)COc6c(F)cccc6Cl)cc[nH]c5=O)[nH]c4cc3C2=O)CC1` [compound 153], the 50% inhibitory concentration (IC50) is less than 0.5 µM in assay [1]; 5 to 15 µM in assay [2]; less than 0.5 µM in assay [3]; greater than 15 µM in assay [4]; less than 0.5 µM in assay [5]; 5 to 15 µM in assay [6].

In the case of `CN1CCC(N2Cc3cc4nc(-c5c(NC[C@@H](O)COc6cccc(C(F)(F)F)c6Cl)cc[nH]c5=O)[nH]c4cc3C2=O)CC1` [compound 154], the half-inhibitory concentration (IC50) in assay [1] is less than 0.5 µM; in assay [2] it was 5 to 15 µM; in assay [3], less than 0.5 µM; in assay [4] it was greater than 15 µM; in assay [5], less than 0.5 µM; in assay [6] it was greater than 15 µM.

On to `Cc1ccc(OC[C@H](O)CNc2cc[nH]c(=O)c2-c2nc3cc4c(cc3[nH]2)CN(C2CCN(C)CC2)C4=O)c(Br)c1` [compound 166], for which the IC50 in assay [7] is greater than 15 µM; in assay [1], less than 0.5 µM; in assay [2], 0.5 to 5 µM; in assay [3] it was less than 0.5 µM; in assay [4], 5 to 15 µM; in assay [5] it was less than 0.5 µM. For the same compound, in assay [6], the IC50 lay within 0.5 to 5 µM.

Turning to `CN1CCC(N2Cc3cc4nc(-c5c(NC[C@@H](O)COc6cc(C(F)(F)F)ccc6Cl)cc[nH]c5=O)[nH]c4cc3C2=O)CC1` [compound 151], the concentration for half-maximal inhibition (IC50) in assay [1] is less than 0.5 µM; in assay [2] it was 5 to 15 µM; in assay [3], less than 0.5 µM; in assay [4], greater than 15 µM; in assay [5], less than 0.5 µM; in assay [6] it was 5 to 15 µM.

With `CCc1c(OC[C@H](O)CNc2cc[nH]c(=O)c2-c2nc3cc4c(cc3[nH]2)CN(C2CCN(C)CC2)C4=O)ccc2c1OCO2` [compound 162], the IC50 in assay [7] is 5 to 15 µM; in assay [1], less than 0.5 µM; in assay [2] it was 5 to 15 µM; in assay [3], less than 0.5 µM; in assay [4] it was 5 to 15 µM; in assay [5], less than 0.5 µM. This compound returned a half-inhibitory concentration (IC50) in assay [6] of 0.5 to 5 µM.
